Results published in ChEMBL document CHEMBL1145252, “Macrolactonization catalyzed by the terminal thioesterase domain of the nonribosomal peptide synthetase responsible for lichenysin biosynthesis” (Bioorg Med Chem Lett, 2005).

What was measured:
[1] = Michaelis-Menten constant for the hydrolysis of the lipopeptide SNAC by the licC thioesterase
[2] = Catalytic activity for the cyclization of the lipopeptide SNAC by the surfactin thioesterase
[3] = Michaelis-Menten constant for the cyclization of the lipopeptide SNAC by the licC thioesterase
[4] = Catalytic activity for the hydrolysis of the lipopeptide SNAC by the thioesterase
[5] = Ratio of Michaelis-Menten constant to that of catalytic activity by the licC thioesterase
[6] = Catalytic activity for the hydrolysis of the lipopeptide SNAC by the licC thioesterase
[7] = Michaelis-Menten constant for the cyclization of the lipopeptide SNAC by the licC thioesterase; nd = not determined.

Row | Km [1] | Km [3] | Compound | also measured
1 | 8.13 µM | 6.83 µM | CC[C@H](C)[C@H](NC(=O)[C@@H](CC(C)C)NC(=O)[C@H](CC(=O)O)NC(=O)[C@@H](NC(=O)[C@@H](CC(C)C)NC(=O)[C@H](CC(C)C)NC(=O)[C@H](CCC(N)=O)NC(=O)C[C@@H](C)O)C(C)C)C(=O)SCCNC(C)=O | K cat [2]: 1.77 s⁻¹; K cat [4]: 1.57 s⁻¹
2 | 12 µM | – | CC[C@H](C)[C@H](NC(=O)[C@@H](CC(C)C)NC(=O)[C@H](CC(=O)O)NC(=O)[C@@H](NC(=O)[C@@H](CC(C)C)NC(=O)[C@H](CC(C)C)NC(=O)[C@H](CCC(N)=O)NC(=O)C[C@H](C)O)C(C)C)C(=O)SCCNC(C)=O | Ratio [5]: 19.5; K cat [6]: 3.89 s⁻¹; Km [7]: Not detected
3 | 8.05 µM | 9.35 µM | CC[C@H](C)[C@H](NC(=O)[C@@H](CC(C)C)NC(=O)[C@H](CC(=O)O)NC(=O)[C@H](C)NC(=O)[C@@H](CC(C)C)NC(=O)[C@H](CC(C)C)NC(=O)[C@H](CCC(N)=O)NC(=O)C[C@@H](C)O)C(=O)SCCNC(C)=O | –
4 | 9.41 µM | – | CC[C@H](C)[C@H](NC(=O)[C@@H](CC(C)C)NC(=O)[C@H](CC(=O)O)NC(=O)[C@@H](NC(=O)[C@@H](CC(C)C)NC(=O)[C@H](CC(C)C)NC(=O)[C@H](CCC(N)=O)NC(=O)CCN)C(C)C)C(=O)SCCNC(C)=O | Ratio [5]: 17.3; K cat [6]: 2.71 s⁻¹; Km [7]: Not detected

Further lines, the molecule ahead of its results:

Row | Compound | Km [1] | Km [3] | also measured
5 | CC(=O)NCCSC(=O)[C@H](C)NC(=O)[C@@H](CC(C)C)NC(=O)[C@H](CC(=O)O)NC(=O)[C@@H](NC(=O)[C@@H](CC(C)C)NC(=O)[C@H](CC(C)C)NC(=O)[C@H](CCC(N)=O)NC(=O)C[C@@H](C)O)C(C)C | 191 µM | – | –
6 | CC[C@H](C)[C@H](NC(=O)[C@@H](CC(C)C)NC(=O)[C@H](CC(=O)O)NC(=O)[C@@H](NC(=O)[C@@H](CC(C)C)NC(=O)[C@H](CC(C)C)NC(=O)[C@H](C)NC(=O)C[C@@H](C)O)C(C)C)C(=O)SCCNC(C)=O | 29 µM | 29.9 µM | –
7 | CC[C@H](C)[C@H](NC(=O)[C@@H](C)NC(=O)[C@H](CC(=O)O)NC(=O)[C@@H](NC(=O)[C@@H](CC(C)C)NC(=O)[C@H](CC(C)C)NC(=O)[C@H](CCC(N)=O)NC(=O)C[C@@H](C)O)C(C)C)C(=O)SCCNC(C)=O | 263 µM | 257 µM | –
8 | CC[C@H](C)[C@H](NC(=O)[C@@H](CC(C)C)NC(=O)[C@H](CC(=O)O)NC(=O)[C@@H](NC(=O)[C@@H](C)NC(=O)[C@H](CC(C)C)NC(=O)[C@H](CCC(N)=O)NC(=O)C[C@@H](C)O)C(C)C)C(=O)SCCNC(C)=O | 4.86 µM | 5.1 µM | –
9 | CC[C@H](C)[C@H](NC(=O)[C@@H](CC(C)C)NC(=O)[C@H](C)NC(=O)[C@@H](NC(=O)[C@@H](CC(C)C)NC(=O)[C@H](CC(C)C)NC(=O)[C@H](CCC(N)=O)NC(=O)C[C@@H](C)O)C(C)C)C(=O)SCCNC(C)=O | 8.17 µM | – | –
10 | CC[C@H](C)[C@H](NC(=O)[C@@H](CC(C)C)NC(=O)[C@H](CC(=O)O)NC(=O)[C@@H](NC(=O)[C@@H](CC(C)C)NC(=O)[C@H](C)NC(=O)[C@H](CCC(N)=O)NC(=O)C[C@@H](C)O)C(C)C)C(=O)SCCNC(C)=O | 16.9 µM | 15.2 µM | –
